Results: the supplement of paper PMC12613149

What was measured:
[1] = collision cross section (TIMS, N2 drift gas) of the primary ion; higher = larger gas-phase ion size
[2] = reversed-phase LC retention time (C18, 15 min MeOH gradient); higher = more hydrophobic / later elution
[3] = ionization mode: ESI-, ion species: [M-H]-
[4] = ionization mode: ESI+, ion species: [M+H]+
[5] = ionization mode: ESI+, ion species: [M]+

Row | Structure (SMILES) | collision cross section [1, 3] [Å²] | reversed-phase LC retention time [2, 3] [min] | collision cross section [1, 4] [Å²] | reversed-phase LC retention time [2, 4] [min] | collision cross section [1, 5] [Å²] | reversed-phase LC retention time [2, 5] [min]
1 | CC1(C)[C@@H](O[C@H]2O[C@H](C(=O)O)[C@@H](O)[C@H](O)[C@H]2O[C@@H]2O[C@H](C(=O)O)[C@@H](O)[C@H](O)[C@H]2O)CC[C@]2(C)[C@H]3C(=O)C=C4[C@@H]5C[C@@](C)(C(=O)O)CC[C@]5(C)CC[C@@]4(C)[C@]3(C)CC[C@@H]12 [Glycyrrhizic acid] | 282.7 | 11.8 |  |  |  | 
2 | CCC(CC)Nc1c([N+](=O)[O-])cc(C)c(C)c1[N+](=O)[O-] [Pendimethalin] |  |  | 160.71 | 17.1 |  | 
3 | COCCN(C(=O)CS(=O)(=O)O)c1c(C)cccc1C [Dimethachlor ESA] | 167.03 | 9.95 | 164.03 | 10 |  | 
4 | C[C@]12C=CC(=O)C=C1CC[C@@H]1[C@@H]2C(=O)C[C@@]2(C)[C@H]1CC[C@]2(O)C(=O)CO [Prednisone] | 184 | 15.2 | 185.97 | 11.9 |  | 
5 | N#Cc1nn(-c2c(Cl)cc(C(F)(F)F)cc2Cl)c(N)c1C(F)(F)F [Fipronil desulfinyl] | 168.16 | 15.4 |  |  |  | 
6 | Cn1sc(Cl)cc1=O [Methylchloroisothiazolinone] |  |  | 120.77 | 7.46 |  | 
7 | CC(C)NCC(O)COc1cccc2[nH]ccc12 (stereo not drawn) [Pindolol] |  |  | 159 | 7.36 |  | 
8 | CCNc1nc(=O)nc(NC(C)(C)C)[nH]1 [Terbuthylazine-2-hydroxy] | 151.91 | 12.4 |  |  |  | 
9 | COC(=O)C(c1ccccc1Cl)N1CCc2sccc2C1 (stereo not drawn) [Clopidogrel] |  |  | 170.12 | 15.4 |  | 
10 | COc1cc(NS(=O)(=O)c2ccc(N)cc2)nc(OC)n1 [Sulfadimethoxine] | 170.58 | 6.81 | 170.07 | 9.96 |  | 
11 | CC(C)(c1ccc(OCC(O)CCl)cc1)c1ccc(OCC(O)CCl)cc1 (stereo not drawn) [Bisphenol A bis(3-chloro-2-hydroxypropyl) ether] |  |  | 194.74 | 14.2 |  | 
12 | CC(=O)Nc1c(I)c(NC(C)=O)c(I)c(C(=O)O)c1I [Diatrizoate] |  |  | 179.28 | 4.56 |  | 
13 | CC1(C)O[C@@H]2C[C@H]3[C@@H]4C[C@H](F)C5=CC(=O)C=C[C@]5(C)[C@@]4(F)[C@@H](O)C[C@]3(C)[C@]2(C(=O)CO)O1 [Fluocinolone acetonide] | 198.83 | 13.7 |  |  |  | 
14 | CCCCCCCCCCCC(=O)NCC(C)O (stereo not drawn) [Lauric isopropanolamide] |  |  | 178.97 | 16.6 |  | 
15 | Cc1c(Cl)cccc1Nc1ccccc1C(=O)O [Tolfenamic acid] | 158.38 | 14.2 | 156.85 | 16.6 |  | 
16 | Nc1nnc(-c2cccc(Cl)c2Cl)c(N)n1 [Lamotrigine] |  |  | 153.91 | 9.33 |  | 
17 | Cc1c(NC=O)c(=O)n(-c2ccccc2)n1C [N-Formyl-4-aminoantipyrine] |  |  | 149.16 | 7.74 |  | 
18 | O=C(O)CCCCCCCC(=O)O [Azelaic acid] | 138.44 | 0.98 |  |  |  | 
19 | CN1CCCC1c1cccnc1 (stereo not drawn) [Nicotine] |  |  | 135.54 | 2.26 |  | 
20 | Nc1ccc2nc3ccc(N)cc3nc2c1 [2,8-Diaminophenazine] |  |  | 143.53 | 8.22 |  | 
21 | CCc1cccc(C)c1N(C(=O)C(=O)O)C(C)COC (stereo not drawn) [Metolachlor OA] | 165.62 | 11.9 | 160 | 12.7 |  | 

Row | Structure (SMILES) | collision cross section [1, 3] [Å²] | reversed-phase LC retention time [2, 3] [min] | collision cross section [1, 4] [Å²] | reversed-phase LC retention time [2, 4] [min] | collision cross section [1, 5] [Å²] | reversed-phase LC retention time [2, 5] [min]
22 | C[C@H]1[C@H](C)CC[C@]2(C(=O)O)CC[C@]3(C)C(=CC[C@@H]4[C@@]5(C)CC[C@H](O)C(C)(C)[C@@H]5CC[C@]43C)[C@H]12 [Ursolic acid] | 219.38 | 17.6 | 208.26 | 18.4 |  | 
23 | CCN(CC)c1ccc2c(C)cc(=O)oc2c1 [7-Diethylamino-4-methylcoumarin] |  |  | 152.41 | 14.3 |  | 
24 | Cn1ncc(N)c(Cl)c1=O [Methyldesphenylchloridazon] |  |  | 123.51 | 5.06 |  | 
25 | Cc1cccc(C)c1N(Cn1cccn1)C(=O)CS(=O)(=O)O [Metazachlor ESA] | 168.78 | 9.35 | 168.61 | 9.52 |  | 
26 | O=C(O)c1cc(Oc2ccc(Cl)cc2Cl)ccc1[N+](=O)[O-] [Bifenox free acid] | 177.92 | 13.1 |  |  |  | 
27 | O=S(=O)(O)C(F)(F)C(F)(F)C(F)(F)C(F)(F)C(F)(F)F [Perfluoropentanesulfonic acid] | 141.48 | 12.8 |  |  |  | 
28 | COc1nc(C)nc(NC(=O)NS(=O)(=O)c2ccccc2Cl)n1 [Chlorsulfuron] | 177.5 | 9.09 | 177.23 | 12.1 |  | 
29 | CCC(=O)OCC(=O)C1(OC(=O)CC)C(C)CC2C3CCC4=CC(=O)C=CC4(C)C3(F)C(O)CC21C (stereo not drawn) [Betamethasone dipropionate] | 216.67 | 16.2 | 220.81 | 15.7 |  | 
30 | Nc1c(Cl)c(F)nc(OCC(=O)O)c1Cl [Fluroxypyr] | 139.78 | 7.61 |  |  |  | 
31 | O=C1Nc2ccc(Cl)cc2C(c2ccccc2)=NC1O (stereo not drawn) [Oxazepam] | 162.74 | 13.4 | 164.08 | 13.1 |  | 
32 | CSc1nc(NC2CC2)nc(NC(C)(C)C)n1 [Irgarol] |  |  | 163.17 | 14.4 |  | 
33 | CCCC1CC(C(=O)NC(C(C)Cl)C2OC(SC)C(O)C(O)C2O)N(C)C1 (stereo not drawn) [Clindamycin] | 200.27 | 16.1 | 203.51 | 11.5 |  | 
34 | COC(=O)c1ccc(CNS(C)(=O)=O)cc1S(=O)(=O)NC(=O)Nc1nc(OC)cc(OC)n1 [Mesosulfuron-methyl] | 206.67 | 9.27 | 201.99 | 12.7 |  | 
35 | BrC1CCC(Br)C(Br)CCC(Br)C(Br)CCC1Br (stereo not drawn) [Hexabromocyclododecane (two peaks)] | 178.05 | 18.9 |  |  |  | 
36 | O=C(c1ccc(OCCN2CCCCC2)cc1)c1c(-c2ccc(O)cc2)sc2cc(O)ccc12 [Raloxifene] | 213.83 | 15.4 | 216.23 | 11.3 |  | 
37 | Cc1ccc(-c2cc(C(F)(F)F)nn2-c2ccc(S(N)(=O)=O)cc2)cc1 [Celecoxib] | 191.15 | 15.5 | 189.33 | 15.1 |  | 
38 | c1ccc2[nH]cnc2c1 [Benzimidazole] |  |  | 119.54 | 4.16 |  | 
39 | CN=C(NC#N)NCCSCc1nc[nH]c1C [Cimetidine] | 165.63 | 8.43 | 158.06 | 6.06 |  | 
40 | O=C1CC2(CCCCC2)CN1 [Gabapentin-Lactam] |  |  | 135.35 | 11.2 |  | 
41 | COc1cc2ccc(=O)oc2c(O)c1O [Fraxetin] |  |  | 138.67 | 8.29 |  | 
42 | CCCCOC(=O)CCCCCCCCC(=O)OCCCC [Dibutyl sebacate] |  |  | 185.48 | 18 |  | 

Row | Structure (SMILES) | collision cross section [1, 3] [Å²] | reversed-phase LC retention time [2, 3] [min] | collision cross section [1, 4] [Å²] | reversed-phase LC retention time [2, 4] [min] | collision cross section [1, 5] [Å²] | reversed-phase LC retention time [2, 5] [min]
43 | Oc1ccc(C2(c3ccc(O)cc3)CCCCC2)cc1 [Bisphenol Z] | 173.12 | 15.3 |  |  |  | 
44 | CCOC(=O)c1ccc(O)cc1 [Ethylparaben] | 133.39 | 11.3 |  |  |  | 
45 | O=C(c1ccc(O)cc1O)c1ccc(O)cc1O [2,2',4,4'-Tetrahydroxybenzophenone] | 151.01 | 8.54 |  |  |  | 
46 | CCCCN(C=O)CCCC [N,N-Di-n-butylformamide] |  |  | 141.17 | 13.5 |  | 
47 | C[C@]12CCC(=O)C=C1CC[C@@H]1[C@@H]2[C@@H](O)C[C@]2(C=O)[C@@H](C(=O)CO)CC[C@@H]12 [Aldosterone] | 182.17 | 11.9 | 204.03 | 16.5 |  | 
48 | CC12CCC(=O)C=C1C=CC1[C@@H]2CCC2(C)[C@H]1CCC21CCC(=O)O1 (stereo partly drawn) [Canrenone] |  |  | 186.86 | 14.2 |  | 
49 | O=C1CCCCCCCCCCCN1 [Dodecane-12-lactam] |  |  | 148.39 | 13.9 |  | 
50 | CC(C)(c1ccc(O)c(-c2ccccc2)c1)c1ccc(O)c(-c2ccccc2)c1 [Bisphenol PH] | 204.63 | 17.2 |  |  |  | 
51 | COc1cc2ccc(=O)oc2c(O)c1OC [Fraxidin] | 145.19 | 8.57 | 143.3 | 9.58 |  | 
52 | Clc1ccc2n[nH]nc2c1 [5-Chlorobenzotriazole] | 120.9 | 9.28 |  |  |  | 
53 | Oc1cccc2ccccc12 [1-Naphthol] | 124.62 | 14.3 |  |  |  | 
54 | O=C(O)COCCN1CCN(C(c2ccccc2)c2ccc(Cl)cc2)CC1 (stereo not drawn) [Cetirizine] | 195.01 | 14.6 | 200.88 | 13.5 |  | 
55 | COc1cc(C[C@H]2COC(=O)[C@@H]2Cc2ccc(O)c(OC)c2)ccc1O [Matairesinol] | 176.96 | 11.6 | 191.29 | 11.4 |  | 
56 | O=c1cc(-c2ccccc2)oc2cc(O)cc(O)c12 [Chrysin] | 156.4 | 12.8 | 154.65 | 14.1 |  | 
57 | CC[n+]1ccn(C)c1 [1-Ethyl-3-methyl-imidazolium] |  |  |  |  | 115.07 | 0.99
58 | CC(=O)N(CC(O)CO)c1c(I)c(C(=O)NCC(O)CO)c(I)c(C(=O)NCC(O)CO)c1I (stereo not drawn) [Iohexol] | 220.12 | 5.47 | 226.32 | 5.4 |  | 
59 | Nc1nc(=O)c2ncn(COCC(=O)O)c2[nH]1 [Carboxy-aciclovir] |  |  | 150.15 | 2.54 |  | 
60 | O=C(Nc1ccc(F)cc1F)c1cccnc1Oc1cccc(C(F)(F)F)c1 [Diflufenican] | 181.03 | 16.7 | 189.49 | 16.2 |  | 
61 | CC(C)NCC(O)COc1ccc(CC(N)=O)cc1 (stereo not drawn) [Atenolol] |  |  | 157.6 | 6.24 |  | 
62 | Nc1ccc(Cc2ccc(N)c(Cl)c2)cc1Cl [2,2'-dichloro-4,4'-methylenedianiline] |  |  | 173.31 | 13.8 |  | 
